One assay has as its system alfalfa weevil larvae. The assay can be described thus: topical application to alfalfa weevil larvae. To be noted: 10 percent solution in acetone, all controls reached normal adulthood. It is filed as in vivo. An excerpt:
A number of compounds were applied topically to alfalfa weevil larvae as a 10 percent solution in acetone. Acetone and nontreated controls were also run. Ten larvae were used in each test. The number of normal adults emerging from the larvae was observed. In each case, all the acetone and nontreated controls reached normal adulthood. The number of normal adults from treated larvae are reported below.

The next assay deals with Tenebrio molitor pupae. The assay can be described thus: topical application to Tenebrio molitor pupae, maturation inhibition. Type of assay: in vivo. The gist of the method: (§1)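 Compounds applied topically, 1 μL acetone solution at 10%, 1% or 0.5%, to ten specimens per insect per concentration, alongside acetone and untreated controls; scored after about 8–10 days. Juvenile/adult characteristics rated 0–3 (Tenebrio 0–4), ≥2 meaning unable to reproduce; unreported specimens died during metamorphosis.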

The conditions of assay [1]: Wigglesworth, J. Ins. Physiol. 9, 105 (1963); cited from earlier work.
The next assay has as its system Mexican bean beetle. The assay can be described thus: topical application to Mexican bean beetle, fourth larval stage, maturation inhibition. Type of assay: in vivo. To be noted: rating scale 0-3. The gist of the method: as §1
A further assay has as its system milkweed bug. The assay can be described thus: topical application to milkweed bug, fourth nymphal stage, maturation inhibition. Type of assay: in vivo. As to conditions: rating scale 0-3. The gist of the method: as §1
In another assay the test system is wax moth. Kind of assay: topical application to wax moth, fifth larval stage, maturation inhibition. It is filed as in vivo. The gist of the method:
as §1

Assay [2] deals with Housefly (Musca domestica). Kind of assay: housefly rearing diet test, percent adult emergence. Type of assay: in vivo. The method, then:
Test compounds were mixed with the rearing diet of houseflys at various levels. The prepared diet was then placed in an 8 oz. drinking cup. Three cups were prepared for each treatment level and three control cups. Housefly eggs (Musca domestica) were placed in each cup and they were maintained at 28°C. for 1 week. Fifty pupae were then removed from each cup and placed in a petri dish. After the control pupae had emerged into adults, the percent emergence in each dish was recorded. The test compounds used were 7,8-epoxy-4-ethyl-8-methyl-1-(3,4-methylenedioxyphenyl)-3-decene, 4,8-dimetyl-1-(3,4-methylenedioxyphenyl)-2,6-nonadiene and 2,6-dichloro-2,6-dimethyl-9-(3,4-methylenedioxyphenyl)nonane.

Assay [3] has as its system Aedes aegypti mosquito larvae. Kind of assay: mosquito larvae in aqueous solutions, adult emergence. It is filed as in vivo. As to conditions: for number of adults, Jar 1 Dead / number of adults, Jar 1 Living / number of adults, Jar 2 Dead / number of adults, Jar 2 Living: 13 days. The method, then: Two compounds, 7,8-epoxy-4-ethyl-8-methyl-1-(3,4-methylenedioxyphenyl)-3-decene and 2,6-diemthyl-9-(3,4-methylenedioxyphenyl)-2,6-nonadiene, were tested against Aedes aegypti mosquito larvae in aqueous solutions at concentrations of 10, 5, 2.5. 1.25 and 0.625 ppm. each. Ninety milliliters of each solution were placed in a pint jar and 30 five-day-old mosquito larvae were added to each jar. Two tests were run at each concentration and control tests employing only solvent with no compound were also run. Food was added to each jar, the jars were covered with cloths, and maintained at 29°C. until adults emerged in the control jars. The number of adults in the test jars was determined.

Another assay has as its system aphid nymphs. The assay can be described thus: application to aphid nymphs in acetone. It is filed as in vivo, Aphis gossypi. To be noted: 3 days. The method, then: In another test, female aphids were placed on young squash plants and allowed to produce young for 24 hours. After 24 hours, all adult aphids were removed from the plants and the young were maintained on the plants for an additional 48-hour period. This gave an aphid nymph population having an age of 48 to 72 hours. To each nymph was applied […]. of a 10 percent, 1 percent, or 0.5 percent solution of 2.6- dimethyl-9-(3,4-methylenedioxyphenyl)-2,6-nonadiene or 7,8-epoxy-4-ethyl-8-methyl-1-(3,4-methylenedioxyphenyl)-3-decene in acetone and the aphid nymphs were transferred to new squash plants and observed for possible effects. Ten nymphs were treated with each concentration of each compound and 10 were treated with acetone alone while 10 were not treated to serve as controls. […] There was only one dead nymph treated with acetone alone and one dead nymph in the nontreated controls.

In a further assay the test system is housefly larvae. Kind of assay: topical application to housefly larvae. It is filed as in vivo, Musca domestica. To be noted: scale 0-2. How it is done: The compounds were applied in acetone solution at concentrations of 10 percent, 1 percent and 0.5 percent. One microliter of the acetone solution was applied to each test specimen. Ten test specimens were employed for each insect at each concentration and compared to ten acetone controls and ten zero controls. Approximately eight to ten days were required before results could be ascertained.
A number of compounds were tested against housefly larvae by topical application in an acetone solution using the method described above for the primary test against Tenebrio, milkweed bug, wax moth, and Mexican bean bettel. The results with the first compound are reported on a scale of 0 to 3 with 0 indicating a normal adult, 1 indicating an adult with deformed wings, 2 indicating a partially emerged adult, and 3 indicating no evidence of emergence. The results for the other compounds are reported onn a scale of 0 to 2 with 0 indicating a normal adult, 1 indicating a partially emerged adult and 2 indicating no evidence of emergence.

[4] abbreviates: 10% in acetone, 1 microliter topical, rating scale 0 (no effect) to 3 (maximum).

Consider six compounds from patent publication US3962282A, “Juvenile hormone mimics” (priority 1974, dated 1976).

`CC(C)=CCCC(C)=CCCc1ccc2c(c1)OCCO2` [9-(3,4-ethylenedioxyphenyl)-2,6-dimethyl-2,6-nonadiene]: the “Number of Adults (normal adults from ten treated larvae)” value with alfalfa weevil larvae was determined as 7. Moreover, the “number of specimens in rating 4” value turned out to be 10 specimens in the assay on Tenebrio molitor pupae (0.5%, rating scale 0-4); 8 specimens with Tenebrio molitor pupae (1%, rating scale 0-4); 10 specimens in the assay with Tenebrio molitor pupae (10%, rating scale 0-4). Also, the “number of specimens in rating 3” value in the assay on Tenebrio molitor pupae (1%, rating scale 0-4) is 2 specimens.

With “9-(2-furyl)-2,6-dimethyl-2,6-nonadiene [dendrolasin]”, the juvenile hormone activity entry in assay [1] is given as “some juvenile hormone activity”.

For the compound `COc1cc(CCC=C(C)CCC=C(C)C)cc(OC)c1` [9-(3,5-dimethoxyphenyl)-2,6-dimethyl-2,6-nonadiene], in the assay on alfalfa weevil larvae, the “Number of Adults (normal adults from ten treated larvae)” value is recorded as 8.

For `COc1ccc(CCC=C(C)CCC=C(C)C)cc1OC` [2,6-DIMETHYL-9-(3,4-DIMETHOXYPHENYL)-2,6-NONADIENE], in the assay with alfalfa weevil larvae, the “Number of Adults (normal adults from ten treated larvae)” value was 5. Moreover, the “number of specimens in rating 0” value with Mexican bean beetle (0.5%) stood at 10 specimens; in the assay on Mexican bean beetle (1%), 10 specimens; in the assay with milkweed bug (0.5%) it was 8 specimens; in the assay on milkweed bug (1%) it was 8 specimens; in the assay on wax moth (0.5%, rating scale 0-3), 10 specimens; in the assay with wax moth (1%, rating scale 0-3), 10 specimens. For the same compound, the “number of specimens in rating 0” value amounted to 10 specimens in the assay with wax moth (setting [4]); 10 specimens with Tenebrio molitor pupae (0.5%, rating scale 0-4); 4 specimens in the assay with Tenebrio molitor pupae (1%, rating scale 0-4); 2 specimens in the assay on Tenebrio molitor pupae (10% in acetone, 1 microliter topical, rating scale 0 (no effect) to 4 (maximum)). The “number of specimens in rating 1” value with Mexican bean beetle (10%) was determined as 3 specimens; with Tenebrio molitor pupae (1%, rating scale 0-4), 5 specimens; in the assay with Tenebrio molitor pupae (10%, rating scale 0-4), 5 specimens. The “number of specimens in rating 2” value amounted to 3 specimens in the assay on milkweed bug (10%) and 3 specimens with Tenebrio molitor pupae (10%, rating scale 0-4). Moreover, the “number of specimens in rating 3” value in the assay on milkweed bug (10%) was 2 specimens.

Consider `CCC(=CCCc1ccc2c(c1)OCO2)CCC1OC1(C)CC` (stereo not drawn) [7,8-epoxy-4-ethyl-8-methyl-1-(3,4-methylenedioxyphenyl)-3-decene], for which the “number of specimens in rating 3” value in the assay with Mexican bean beetle (0.5%) turned out to be 10 specimens; in the assay on Mexican bean beetle (1%), 10 specimens; with milkweed bug (0.5%), 9 specimens; in the assay with milkweed bug (1%) it was 8 specimens; in the assay on wax moth (0.5%, rating scale 0-3), 9 specimens; in the assay on wax moth (1%, rating scale 0-3) it was 10 specimens. Also, the “percent adult emergence, Cup 1” value turned out to be 100% in assay [2] (0.1 ppm in diet), 100% in assay [2] (1 ppm in diet), 100% in assay [2] (10 ppm in diet) and 10% in assay [2] (100 ppm in diet). Moreover, the “percent adult emergence, Cup 2” value in assay [2] (0.1 ppm in diet) stood at 100%; in [2] (1 ppm in diet), 100%; in [2] (10 ppm in diet) it was 100%; in assay [2] (100 ppm in diet) it was 20%. In addition, the “percent adult emergence, Cup 3” value is reported as 100% in assay [2] (0.1 ppm in diet), 100% in [2] (1 ppm in diet), 100% in assay [2] (10 ppm in diet) and 10% in assay [2] (100 ppm in diet). For the same compound, the control in assay [2] (100 ppm) is no less than 80%; in assay [3] (at concentrations as low as 0.625 ppm), 100%. In addition, the “number of specimens in rating 0” value in the assay on wax moth (0.5%, rating scale 0-3) worked out at 1 specimens. The “number of adults, Jar 1 Dead” value in assay [3] (0.625 ppm), in assay [3] (1.25 ppm), in assay [3] (2.5 ppm), in assay [3] (5 ppm) and in [3] (10 ppm) was 0 in each case. In addition, the “number of adults, Jar 1 Living” value in [3] (0.625 ppm), in [3] (1.25 ppm), in [3] (2.5 ppm), in assay [3] (5 ppm) and in assay [3] (10 ppm) was 0 throughout. The “number of adults, Jar 2 Dead” value in assay [3] (0.625 ppm), in [3] (1.25 ppm), in [3] (2.5 ppm), in assay [3] (5 ppm) and in assay [3] (10 ppm) was 0 each time. Besides, the “number of adults, Jar 2 Living” value in [3] (0.625 ppm), in assay [3] (1.25 ppm), in [3] (2.5 ppm), in [3] (5 ppm) and in [3] (10 ppm) was 0 each time. The “live adults in the jars” value in [3] (nonadiene at 10, 5, and 2.5 ppm, decene at any concentration) was “never any live adults”. For the same compound, the values for the dead nymphs entry with aphid nymphs (0.5 percent), in the assay with aphid nymphs (1 percent) and in the assay on aphid nymphs (10 percent) were “nine of the ten”, “all of the nymphs” and “all of the nymphs”, respectively. Besides, the entries for the “number in rating 0 (normal adult)” value with housefly larvae (0.5%) and in the assay with housefly larvae (1%) were 6 and 5, respectively. For the same compound, the “number in rating 2 (no evidence of emergence)” value in the assay with housefly larvae (0.5%) is reported as 4; in the assay on housefly larvae (1%), 4; with housefly larvae (10%), 10. In addition, in the assay on housefly larvae (1%), the “number in rating 1 (partially emerged adult)” value turned out to be 1. The “number of specimens in rating 4” value in the assay on Tenebrio molitor pupae (0.5%, rating scale 0-4) came to 10 specimens; with Tenebrio molitor pupae (1%, rating scale 0-4), 10 specimens.

With `COc1cccc(CCC=C(C)CCC=C(C)C)c1` [2,6-DIMETHYL-9-(3-METHOXYPHENYL)-2,6-NONADIENE], in the assay on alfalfa weevil larvae, the “Number of Adults (normal adults from ten treated larvae)” value is 6. Moreover, the “number of specimens in rating 0” value in the assay on Mexican bean beetle (0.5%) is reported as 10 specimens; in the assay with Mexican bean beetle (1%), 10 specimens; in the assay on milkweed bug (0.5%) it was 3 specimens; in the assay with wax moth (0.5%, rating scale 0-3) it was 10 specimens; with wax moth (1%, rating scale 0-3), 9 specimens; in the assay with wax moth (setting [4]) it was 9 specimens. Besides, the “number of specimens in rating 3” value in the assay on Mexican bean beetle (10%) came out at 3 specimens; in the assay on milkweed bug (1%), 3 specimens; in the assay with milkweed bug (10%) it was 9 specimens; in the assay with Tenebrio molitor pupae (0.5%, rating scale 0-4), 1 specimens. The “number of specimens in rating 1” value with milkweed bug (0.5%) came out at 3 specimens; with milkweed bug (1%), 1 specimens. The “number of specimens in rating 2” value in the assay on milkweed bug (0.5%) was determined as 4 specimens; in the assay with milkweed bug (1%), 5 specimens; in the assay with wax moth (10%, rating scale 0-3) it was 1 specimens. Besides, the “number of specimens in rating 4” value amounted to 9 specimens with Tenebrio molitor pupae (0.5%, rating scale 0-4); 10 specimens in the assay with Tenebrio molitor pupae (1%, rating scale 0-4); 10 specimens in the assay with Tenebrio molitor pupae (10%, rating scale 0-4).
